# In PubChem BioAssay AID330 (DTP/NCI, 2004):
# Several values for one entry are separate records, joined by “and”; a condition that tells them apart may be missing. Equal entries are not always repeated. Inconclusive results and toxic doses are left out.
# System: P388 leukemia ip, CD2F1 mice, survival T/C
# Experiment: NCI In Vivo Anticancer Drug Screen. Data for tumor model P388 Leukemia (intraperitoneal) in CD2F1 (CDF1) mice
# Conditions: endpoint: median survival time, higher = longer survival
# Summary of the method: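 Mice carrying the transplanted tumor received test compound or vehicle. Survival was recorded in each group, and the value is the treated-group measurement divided by that of the vehicle-treated control group.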
# [1] = dose: 6.25 mg/kg/injection, schedule: Q01DX005 (ip), vehicle: saline with Tween-80
# [2] = dose: 12.5 mg/kg/injection, schedule: Q01DX005 (ip), vehicle: saline with Tween-80
# [3] = dose: 50.0 mg/kg/injection, schedule: Q01DX005 (ip), vehicle: saline with Tween-80
# [4] = dose: 60.0 mg/kg/injection, schedule: Q01DX005 (ip), vehicle: saline with Tween-80
# [5] = dose: 120.0 mg/kg/injection, schedule: Q01DX005 (ip), vehicle: saline with Tween-80
# [6] = dose: 240.0 mg/kg/injection, schedule: Q01DX005 (ip), vehicle: saline with Tween-80
# [7] = dose: 12.5 mg/kg/injection, schedule: Q01DX005 (ip), vehicle: Klucel (hydroxypropylcellulose) (HPC)
# [8] = dose: 25.0 mg/kg/injection, schedule: Q01DX005 (ip), vehicle: Klucel (hydroxypropylcellulose) (HPC)
# [9] = dose: 50.0 mg/kg/injection, schedule: Q01DX005 (ip), vehicle: Klucel (hydroxypropylcellulose) (HPC)
# [10] = dose: 100.0 mg/kg/injection, schedule: Q01DX005 (ip), vehicle: Klucel (hydroxypropylcellulose) (HPC)
# [11] = dose: 6.25 mg/kg/injection, schedule: Q01DX005 (ip), vehicle: Klucel (hydroxypropylcellulose) (HPC)
# [12] = dose: 100.0 mg/kg/injection, schedule: Q01DX005 (ip), vehicle: saline with Tween-80
# [13] = dose: 200.0 mg/kg/injection, schedule: Q01DX005 (ip), vehicle: saline with Tween-80
# [14] = dose: 50.0 mg/kg/injection, schedule: Q01DX009 (ip), vehicle: saline with Tween-80
# [15] = dose: 100.0 mg/kg/injection, schedule: Q01DX009 (ip), vehicle: saline with Tween-80
# [16] = dose: 200.0 mg/kg/injection, schedule: Q01DX009 (ip), vehicle: saline with Tween-80
structure (smiles),measurement,setting,value
O=Cc1ccc(NCCCN2CCN(CCCNc3ccc(C=O)c4sc5ccccc5c(=O)c34)CC2)c2c(=O)c3ccccc3sc12,T/C,"dose: 1.56 mg/kg/injection, schedule: Q01DX005 (ip), vehicle: saline with Tween-80",107 % of control
same,T/C,"dose: 3.13 mg/kg/injection, schedule: Q01DX005 (ip), vehicle: saline with Tween-80",101 % of control
same,T/C,[1],95 % of control
same,T/C,[2],99 % of control
same,T/C,[3],88 % of control
CCCCc1ccc(-c2nn[nH]n2)nc1,T/C,"dose: 25.0 mg/kg/injection, schedule: Q04DX002 (ip), vehicle: saline with Tween-80",101 % of control
same,T/C,"dose: 50.0 mg/kg/injection, schedule: Q04DX002 (ip), vehicle: saline with Tween-80",100 % of control and 102 % of control
same,T/C,"dose: 100.0 mg/kg/injection, schedule: Q04DX002 (ip), vehicle: saline with Tween-80",100 % of control and 102 % of control and 104 % of control
same,T/C,"dose: 200.0 mg/kg/injection, schedule: Q04DX002 (ip), vehicle: saline with Tween-80",105 % of control and 123 % of control and 95 % of control
N#CC(C#N)=NO (tested in a mixture with another compound),T/C,"dose: 6.25 mg/kg/injection, schedule: Q01DX009 (ip), vehicle: saline with Tween-80",100 % of control
same,T/C,"dose: 12.5 mg/kg/injection, schedule: Q01DX009 (ip), vehicle: saline with Tween-80",98 % of control
same,T/C,"dose: 25.0 mg/kg/injection, schedule: Q01DX009 (ip), vehicle: saline with Tween-80",100 % of control
same,T/C,"dose: 100.0 mg/kg/injection, schedule: Q01DX009 (ip), vehicle: saline",86 % of control
Cc1nc2c(o1)CCCC2,T/C,[4],95 % of control
same,T/C,[5],90 % of control
same,T/C,[6],99 % of control
O=C1CCC(=O)N1SC(Cl)(Cl)Cl,T/C,[1],109 % of control
same,T/C,[2],107 % of control
same,T/C,"dose: 25.0 mg/kg/injection, schedule: Q01DX005 (ip), vehicle: saline with Tween-80",100 % of control
C1=C[N-]c2c3c(ccc2=C1)=CC=C[N-]3.C1=C[N-]c2c3c(ccc2=C1)=CC=C[N-]3.O=S(=O)(O)O.[Cu+2],T/C,"dose: 1.56 mg/kg/injection, schedule: Q04DX002 (ip), vehicle: Klucel (hydroxypropylcellulose) (HPC)",117 % of control
same,T/C,"dose: 3.12 mg/kg/injection, schedule: Q04DX002 (ip), vehicle: Klucel (hydroxypropylcellulose) (HPC)",107 % of control
same,T/C,"dose: 6.25 mg/kg/injection, schedule: Q04DX002 (ip), vehicle: Klucel (hydroxypropylcellulose) (HPC)",107 % of control
same,T/C,"dose: 12.5 mg/kg/injection, schedule: Q04DX002 (ip), vehicle: Klucel (hydroxypropylcellulose) (HPC)",115 % of control
COc1ccc(-c2cc(=O)c3cccc(CC(=O)O)c3o2)cc1,T/C,[7],105 % of control
same,T/C,[8],104 % of control
same,T/C,[9],114 % of control and 98 % of control
same,T/C,[10],170 % of control
FC(F)(F)C(F)(F)C(F)(F)C(F)(F)C(F)(F)C(F)(F)C[CH2][Sn]([Br])([Br])[CH2]CC(F)(F)C(F)(F)C(F)(F)C(F)(F)C(F)(F)C(F)(F)F,T/C,[4],109 % of control
same,T/C,[5],105 % of control
same,T/C,[6],108 % of control
CN1CC[C@]23c4c5ccc(O)c4O[C@H]2C(=O)CC[C@H]3[C@H]1C5,T/C,"dose: 12.5 mg/kg/injection, schedule: Q01DX005 (iv), vehicle: saline",99 % of control and 102 % of control
same,T/C,"dose: 12.5 mg/kg/injection, schedule: Q01DX009 (ip), vehicle: saline",108 % of control
same,T/C,"dose: 25.0 mg/kg/injection, schedule: Q01DX005 (iv), vehicle: saline",102 % of control and 106 % of control
same,T/C,"dose: 25.0 mg/kg/injection, schedule: Q01DX009 (ip), vehicle: saline",111 % of control
same,T/C,"dose: 50.0 mg/kg/injection, schedule: Q01DX005 (iv), vehicle: saline",99 % of control and 102 % of control
same,T/C,"dose: 50.0 mg/kg/injection, schedule: Q01DX009 (ip), vehicle: saline",103 % of control and 97 % of control
same,T/C,"dose: 100.0 mg/kg/injection, schedule: Q01DX005 (iv), vehicle: saline",101 % of control
same,T/C,"dose: 200.0 mg/kg/injection, schedule: Q01DX005 (iv), vehicle: saline",102 % of control
COc1cc2c(c(C(C)(C)C)c1)OC1(O)C2=CC(=O)C=C1C(C)(C)C (centres undefined),T/C,[11],120 % of control
same,T/C,[7],120 % of control
same,T/C,[8],114 % of control
same,T/C,[9],110 % of control
same,T/C,[10],107 % of control
OCCN(CCO)C(Cc1ccccc1)c1ccccc1 (centres undefined),T/C,[3],110 % of control
same,T/C,[12],105 % of control
same,T/C,[13],110 % of control
COCC/C=C/CCl,T/C,"dose: 100.0 mg/kg/injection, schedule: Q04DX003 (ip), vehicle: saline with Tween-80",100 % of control
same,T/C,"dose: 200.0 mg/kg/injection, schedule: Q04DX003 (ip), vehicle: saline with Tween-80",100 % of control
same,T/C,"dose: 400.0 mg/kg/injection, schedule: Q04DX003 (ip), vehicle: saline with Tween-80",95 % of control
CCc1cccc(C)c1NC(=O)/C(Cl)=C(\Cl)C(=O)O,T/C,[4],104 % of control
same,T/C,[5],106 % of control
C[CH2][Ge]([Cl])([Cl])[CH2]C,T/C,[9],91 % of control
same,T/C,[10],87 % of control
O=C(O)C(O)C(F)(F)C(F)(F)C(F)(F)F (centres undefined),T/C,[3],97 % of control
same,T/C,[12],94 % of control
same,T/C,[13],88 % of control
Cn1c(=O)oc2ccc(S(=O)(=O)Nc3ccc(Cl)cc3[N+](=O)[O-])cc21,T/C,"dose: 50.0 mg/kg/injection, schedule: Q01DX005 (ip), vehicle: saline + Tween-80 + alcohol",94 % of control
same,T/C,"dose: 100.0 mg/kg/injection, schedule: Q01DX005 (ip), vehicle: saline + Tween-80 + alcohol",101 % of control
same,T/C,"dose: 200.0 mg/kg/injection, schedule: Q01DX005 (ip), vehicle: saline + Tween-80 + alcohol",102 % of control
COC(=O)c1cc(-c2ccccc2Cl)n2c(N)nnc2n1,T/C,[4],118 % of control
same,T/C,[5],105 % of control
same,T/C,[6],101 % of control
Nc1ncnc2c1ncn2C1OC(CO)C(O)C1N (centres undefined),T/C,"dose: 50.0 mg/kg/injection, schedule: Q04DX002 (ip), vehicle: saline",106 % of control
same,T/C,"dose: 100.0 mg/kg/injection, schedule: Q04DX002 (ip), vehicle: saline",110 % of control
same,T/C,"dose: 200.0 mg/kg/injection, schedule: Q04DX002 (ip), vehicle: saline",112 % of control
CC(=NCCN=C(C)c1ccc(Br)cc1)c1ccc(Br)cc1,T/C,[14],91 % of control
same,T/C,[15],92 % of control
same,T/C,[16],91 % of control
CC(C)(C)c1cc(C#C[Si](C)(C)C)cc(C(C)(C)C)c1,T/C,[11],98 % of control
same,T/C,[7],101 % of control
same,T/C,[8],92 % of control
CCC(C)SSc1ccccc1C(=O)Nc1ccc(Cl)cc1 (centres undefined),T/C,[4],95 % of control
same,T/C,[5],97 % of control
same,T/C,[6],99 % of control
OCC1OC(OC2C(CO)OC(Sc3ccccc3)C(O)C2O)C(O)C(O)C1O (centres undefined),T/C,[9],101 % of control
same,T/C,[10],105 % of control
same,T/C,"dose: 200.0 mg/kg/injection, schedule: Q01DX005 (ip), vehicle: Klucel (hydroxypropylcellulose) (HPC)",105 % of control
OCCN(CCO)c1ccc2ccc(N(CCO)CCO)nc2n1,T/C,"dose: 50.0 mg/kg/injection, schedule: Q04DX003 (ip), vehicle: Klucel (hydroxypropylcellulose) (HPC)",103 % of control
same,T/C,"dose: 100.0 mg/kg/injection, schedule: Q04DX003 (ip), vehicle: Klucel (hydroxypropylcellulose) (HPC)",103 % of control
same,T/C,"dose: 200.0 mg/kg/injection, schedule: Q04DX003 (ip), vehicle: Klucel (hydroxypropylcellulose) (HPC)",100 % of control
COC(=O)C1(CC(=O)C(c2ccccc2)c2ccccc2)NC(=S)NC(=O)C1C#N (centres undefined),T/C,"dose: 60.0 mg/kg/injection, schedule: Q01DX005 (ip), vehicle: saline",98 % of control
same,T/C,"dose: 120.0 mg/kg/injection, schedule: Q01DX005 (ip), vehicle: saline",95 % of control
same,T/C,"dose: 240.0 mg/kg/injection, schedule: Q01DX005 (ip), vehicle: saline",100 % of control
O=C(NC(=NC(=Nc1ccc(Cl)cc1)c1ccccc1)c1ccccc1)c1ccccc1,T/C,[14],92 % of control
same,T/C,[15],95 % of control
same,T/C,[16],99 % of control
COc1ccc2c(c1)C1(C)c3cc(OC)ccc3OC1(C)O2 (centres undefined),T/C,"dose: 50.0 mg/kg/injection, schedule: Q01DX009 (ip), vehicle: other",103 % of control
same,T/C,"dose: 100.0 mg/kg/injection, schedule: Q01DX009 (ip), vehicle: other",95 % of control
same,T/C,"dose: 200.0 mg/kg/injection, schedule: Q01DX009 (ip), vehicle: other",103 % of control
